Read-outs that look alike come from different tables or passages of the source.
Legend:
PC12 cells = assay: Neuroprotective activity against Aβ25-35 induced PC12 cell death by MTT assay; assay type: cell-based; details: for Cell viability: Aβ25-35-induced cell damage in PC12 cells, control = 1.000, model (Aβ25-35) = 0.633, test concentration not given; for EC50: Rattus norvegicus
Method: Meanwhile, all isolated compounds were evaluated for their neuroprotective potency against the Aβ25-35 induced PC12 cell death by MTT assay.
A cell viability assay was conducted to test the cytotoxic effects of the compounds on PC12 cells. Meanwhile, the neuroprotective activity of all compounds against the Aβ25-35 induced PC12 cell death by MTT assay. PC12 cells were divided into four groups: normal control, model, positive control (Resveratrol), and isolates intervention groups (1, 10, 20, 40, 60, 80, 100 μmol/L). Detailed experimental procedures and experimental data can be found in the Supporting Information.
Cell culture. […] The cells were maintained at 37°C in a humidified atmosphere containing 5% CO2. The culture medium was replaced every three days, and the cells were passaged when they reached 70% confluency.
Preparation of Aβ25-35. Aβ25-35 was dissolved in sterile double-distilled water to prepare a 2 mM stock solution. The solution was then incubated at 37°C for 7 days to induce aggregation.
MTT assay for cell viability. PC12 cells were divided into four groups: normal control, model, positive control (Resveratrol), and isolates intervention groups (1, 10, 20, 40, 60, 80, 100 μmol/L). The cells were seeded in 96-well plates at an appropriate density with 200 μL medium per well and were cultured for 24 hours. The positive control and intervention groups were pretreated with different concentrations of drug-containing medium for 2 hours, after which 2 μL of Aβ25-35 was added to each well of the model, positive control, and intervention groups for 24 hours. After the treatment, 20 μL of […] MTT solution was added to each well and incubated for 4 hours. The medium was then removed, and 150 μL of DMSO was added to each well. The plate was shaken until the formazan product was completely dissolved. The absorbance was measured at 570 nm using a spectrophotometer.

[1] = target: acetylcholinesterase (AChE) (Homo sapiens, UniProt P22303); assay: biochemical
Method: The first and the main class of drugs currently used for AD are the AChE inhibitors and are widely used for the symptomatic treatment of mild-moderate AD [2]. All alkaloids were screened toward AChE via improved Ellman’s method (Supporting Information).
The compounds were prepared in DMSO and diluted in buffer solution to different concentrations. In a 96-well plate, 140 μL of PBS (pH = 8) buffer, 20 μL of all the sample solutions were transferred in each well, and 20 μL of 0.2 U/mL AChE solution were added. The mixture was incubated at 37°C for 10 minutes. Subsequently, 10 μL of 3 mM 5,5'-dithiobis-(2-nitrobenzoic acid) (DTNB) and 10 μL of 15 mM acetylthiocholine (ATCl) were added, followed by reaction at 37 °C for 20 minutes. […] Each experimental group was set up with three replicate wells, and huperzine A was used as the positive control.

[2] = PC-12, against Aβ25-35-induced PC12 cell damage, MTT, resveratrol as positive control, read-out: EC50 (μM), neuroprotective effect
[3] = PC-12, read-out: EC50 (μM), neuroprotective effect

Chain of acetylcholinesterase (AChE) (P22303 32-614, species assumed): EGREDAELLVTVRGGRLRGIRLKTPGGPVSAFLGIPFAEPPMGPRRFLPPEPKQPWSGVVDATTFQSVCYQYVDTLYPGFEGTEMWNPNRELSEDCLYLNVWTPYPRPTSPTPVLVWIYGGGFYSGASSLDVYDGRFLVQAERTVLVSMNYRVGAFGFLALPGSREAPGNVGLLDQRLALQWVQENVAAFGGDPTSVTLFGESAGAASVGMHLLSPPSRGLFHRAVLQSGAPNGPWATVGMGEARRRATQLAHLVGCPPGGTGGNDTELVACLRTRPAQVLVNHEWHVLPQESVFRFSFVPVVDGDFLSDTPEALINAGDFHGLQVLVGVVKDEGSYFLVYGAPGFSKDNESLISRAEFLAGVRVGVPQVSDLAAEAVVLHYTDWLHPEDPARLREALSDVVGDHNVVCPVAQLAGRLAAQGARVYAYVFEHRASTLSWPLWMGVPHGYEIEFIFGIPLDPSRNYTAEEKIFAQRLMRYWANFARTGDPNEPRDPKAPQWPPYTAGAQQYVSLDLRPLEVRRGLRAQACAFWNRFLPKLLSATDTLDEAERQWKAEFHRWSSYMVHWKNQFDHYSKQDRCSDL

CC1N2CCCCC2C23CC(CC4CCCN1C42)C1CCCCN1C3 (racemic) [Compound 1, (±)-Ormohenin A] was tested, and the Cell viability (PC12 cells; MTT) was 0.641 ± 0.009.

In the case of CC1N2CCCCC2C23CC(CC4CCCN1C42)C1CCCCN1C3 (racemic) [Compound 2, (±)-Ormohenin B], the Cell viability (PC12 cells; MTT) is reported as 0.693 ± 0.024.

C1CC[C@H]([C@@]23C[C@H](C[C@H]4CCCN[C@@H]42)[C@@H]2CCCCN2C3)NC1 (racemic) [Compound 5, (±)-18-epiormosanine] gave a Cell viability (PC12 cells; MTT) of 0.698 ± 0.032.

Work on C1CC[C@@H]([C@@]23C[C@H](C[C@H]4CCCN[C@@H]42)[C@@H]2CCCCN2C3)NC1 (racemic) [Compound 6, (±)-ormosanine] yielded a Cell viability (PC12 cells; MTT) of 0.704 ± 0.038.

CC1N2CCCCC2C23CC(CC4CCCN1C42)C1CCCCN1C3 (single isomer, unassigned; (-)) [Compound 3, (−)-ormohenin C] gave an IC50 ([1]; improved Ellman's method, huperzine A as positive control, read-out: AChE inhibitory activity IC50) of 142 ± 19.6 µM, a Cell viability (PC12 cells; MTT) of 0.899 ± 0.061 and an EC50 (PC12 cells; [2]) of 15.5 µM.

With C[C@@H]1N2CCCC[C@H]2[C@@]23C[C@H](C=C4CCCN1[C@@H]42)[C@@H]1CCCCN1C3 [Compound 4, (−)-ormohenin D] the Cell viability (PC12 cells; MTT) was 0.629 ± 0.013.

In the case of O=C1CC=C[C@@H]2[C@@H]3C[C@H](CN12)[C@H]1CCCCN1C3 [Compound 7, (6R,7S,9S,11R)-4,5-dehydro-α-isolupanine], the Cell viability (PC12 cells; MTT) is reported as 0.650 ± 0.009.

Compound O=c1cccc2n1C[C@H]1C[C@@H]2CN2CC=CC[C@@H]12 [Compound 8, (7S,9S,11S)-15,16-dehydroanagyrine] has a Cell viability (PC12 cells; MTT) of 0.662 ± 0.041.

O=C1CCC[C@@H]2[C@@H]3C[C@H](CN12)[C@@H]1CCCCN1C3 [Compound 9, (+)-lupanine] gave a Cell viability (PC12 cells; MTT) of 0.974 ± 0.065 and an EC50 (PC12 cells; [3]) of 10.4 µM.

O=c1cccc2n1C[C@H]1C[C@@H]2CN2CCCC[C@@H]12 [Compound 10, (+)-anagyrine] was tested, and the Cell viability (PC12 cells; MTT) was 0.645 ± 0.011.

O=C1CCC[C@@H]2[C@@H]3C[C@H](CN12)[C@H]1CCCCN1C3 [Compound 11, (+)-α-isolupanine] was tested, and the Cell viability (PC12 cells; MTT) was 0.653 ± 0.027.

For O=c1cccc2n1C[C@@H]1CNC[C@H]2C1 [Compound 12, (+)-cytisine], the IC50 [1] was 6.85 ± 1.2 µM, the Cell viability (PC12 cells; MTT) was 0.934 ± 0.031 and the EC50 (PC12 cells; [3]) was 7.99 µM.

For Oc1ccc(/C=C/c2cc(O)cc(O)c2)cc1 [Resveratrol, reference compound], the Cell viability (PC12 cells; MTT) was 0.82 ± 0.039 and the EC50 (PC12 cells; [2]) was 5.99 µM.
